Experiment: xn = mol fraction of the nth substance listed

CNC=O + CC(=O)O
viscosity [mPa·s], 100 kPa
Conditions	x1 = 0.1097	x1 = 0.183	x1 = 0.2628	x1 = 0.3502	x1 = 0.4802	x1 = 0.5897	x1 = 0.6693	x1 = 0.7549	x1 = 0.8961
303.15 K	1.044	1.086	1.132	1.183	1.259	1.324	1.372	1.426	1.517
308.15 K	0.9723	1.011	1.054	1.1	1.169	1.228	1.272	1.32	1.402
313.15 K	0.9175	0.9534	0.992	1.033	1.095	1.148	1.187	1.229	1.301
318.15 K	0.8728	0.9059	0.9409	0.978	1.033	1.08	1.114	1.151	1.213

C[N+]1(CC2CO2)CCCC1=O.[Cl-] (stereo unspecified) + CC(=O)O
viscosity [mPa·s], 101 kPa
Conditions	293.15 K	298.15 K	303.15 K	308.15 K	313.15 K
x1 = 0.0373	1.592	1.448	1.322	1.213	1.115
x1 = 0.0644	1.83	1.652	1.5	1.371	1.256
x1 = 0.1087	2.234	2	1.802	1.632	1.489
x1 = 0.2041	2.728	2.425	2.172	1.959	1.776
x1 = 0.3022	2.803	2.492	2.235	2.018	1.831
x1 = 0.4053	2.587	2.314	2.087	1.892	1.723
x1 = 0.5054	2.324	2.095	1.9	1.731	1.586
x1 = 0.605	2.107	1.908	1.738	1.591	1.465
x1 = 0.7073	1.919	1.746	1.597	1.469	1.356
x1 = 0.8065	1.817	1.657	1.521	1.402	1.297
x1 = 0.9047	1.752	1.602	1.473	1.36	1.261

OC[C@@H](O)[C@@H](O)[C@H](O)[C@@H](O)CO + CC(=O)[O-].CC[n+]1ccn(C)c1
Conditions	viscosity [mPa·s]
313.15 K, 100 kPa, x1 = 0.5	572.5

CNC=O + CC(=O)c1ccccc1
viscosity [mPa·s], 101 kPa
Conditions	x1 = 0.0867	x1 = 0.176	x1 = 0.268	x1 = 0.3629	x1 = 0.4607	x1 = 0.5617	x1 = 0.6659	x1 = 0.7736	x1 = 0.8849
303.15 K	1.522	1.532	1.541	1.549	1.556	1.564	1.571	1.578	1.583
308.15 K	1.423	1.43	1.436	1.442	1.447	1.452	1.456	1.46	1.462
313.15 K	1.279	1.289	1.299	1.307	1.316	1.325	1.333	1.34	1.347
318.15 K	1.133	1.148	1.162	1.176	1.19	1.204	1.218	1.231	1.243

CC(C)OCCO + CC(C)O
298.15 K, 101.33 kPa
Conditions	viscosity [mPa·s]
x1 = 0.0272	2.051
x1 = 0.0618	2.009
x1 = 0.0768	1.995
x1 = 0.092	1.986
x1 = 0.1373	1.959
x1 = 0.1766	1.941
x1 = 0.2006	1.929
x1 = 0.2467	1.914
x1 = 0.2976	1.9
x1 = 0.3502	1.899
x1 = 0.3949	1.902
x1 = 0.4259	1.903
x1 = 0.4507	1.908
x1 = 0.5015	1.918
x1 = 0.5529	1.93
x1 = 0.6181	1.948
x1 = 0.6764	1.971
x1 = 0.73	1.991
x1 = 0.7886	2.014
x1 = 0.8718	2.049
x1 = 0.9241	2.064
x1 = 0.9782	2.083

COC(=O)c1ccccc1 + CC(C)O
viscosity [mPa·s], 101 kPa
Conditions	x1 = 0.0634	x1 = 0.1321	x1 = 0.2069	x1 = 0.2887	x1 = 0.3784	x1 = 0.4773	x1 = 0.5868	x1 = 0.7089	x1 = 0.8456
303.15 K	1.655	1.656	1.658	1.659	1.661	1.663	1.664	1.666	1.668
308.15 K	1.495	1.495	1.496	1.496	1.497	1.498	1.498	1.499	1.5
313.15 K	1.323	1.326	1.33	1.335	1.339	1.344	1.35	1.356	1.363
318.15 K	1.189	1.196	1.204	1.212	1.221	1.231	1.242	1.254	1.267
323.15 K	1.074	1.085	1.097	1.11	1.123	1.14	1.157	1.177	1.198

CCCCCCCCN(CCCCCCCC)CCCCCCCC + CC(CC(C)(C)C)CC(C)(C)C
298.15 K, 101.33 kPa
Conditions	viscosity [mPa·s]
x1 = 0.052	1.424
x1 = 0.11	1.675
x1 = 0.173	1.982
x1 = 0.527	4.26

CNC=O + CC(O)CO
viscosity [mPa·s], 101 kPa
Conditions	x1 = 0.0968	x1 = 0.1216	x1 = 0.2366	x1 = 0.347	x1 = 0.4526	x1 = 0.5534	x1 = 0.6498	x1 = 0.7432	x1 = 0.832	x1 = 0.917
293.15 K	39.02	36.25	22.68	14.7	9.934	6.941	5.057	3.792	2.933	2.349
303.15 K	22.78	21.44	14.24	9.752	6.915	5.053	3.822	2.965	2.363	1.935
313.15 K	14.24	13.56	9.479	6.811	5.034	3.819	2.986	2.381	1.949	1.631
323.15 K	9.382	9.048	6.609	4.951	3.793	2.97	2.388	1.957	1.635	1.397

CNC=O + CCC(=O)O
viscosity [mPa·s], 100 kPa
Conditions	x1 = 0.1115	x1 = 0.1858	x1 = 0.2665	x1 = 0.3545	x1 = 0.4849	x1 = 0.5942	x1 = 0.6734	x1 = 0.7583	x1 = 0.8978
303.15 K	1.025	1.069	1.116	1.169	1.248	1.315	1.365	1.42	1.514
308.15 K	0.9555	0.9958	1.039	1.087	1.159	1.22	1.265	1.315	1.399
313.15 K	0.8989	0.9358	0.9757	1.019	1.083	1.138	1.179	1.223	1.298
318.15 K	0.8503	0.8846	0.9214	0.9605	1.019	1.068	1.104	1.143	1.209

C[N+]1(CC2CO2)CCCC1=O.[Cl-] (stereo unspecified) + CCC(=O)O
viscosity [mPa·s], 101 kPa
Conditions	293.15 K	298.15 K	303.15 K	308.15 K	313.15 K
x1 = 0.0325	1.305	1.209	1.12	1.041	0.971
x1 = 0.0638	1.577	1.45	1.335	1.233	1.144
x1 = 0.1089	1.836	1.673	1.533	1.41	1.301
x1 = 0.205	2.333	2.104	1.909	1.738	1.592
x1 = 0.3036	2.544	2.285	2.064	1.876	1.712
x1 = 0.4076	2.537	2.278	2.059	1.87	1.707
x1 = 0.5049	2.288	2.069	1.882	1.718	1.578
x1 = 0.6079	2.088	1.895	1.729	1.586	1.462
x1 = 0.7037	1.935	1.763	1.613	1.485	1.372
x1 = 0.8065	1.808	1.65	1.516	1.399	1.296
x1 = 0.9028	1.643	1.507	1.39	1.286	1.194

CCCCOCCO + CCC(C)=O
298.15 K, 101 kPa
Conditions	viscosity [mPa·s]
x2 = 0.154	2.106
x2 = 0.2906	1.609
x2 = 0.4126	1.234
x2 = 0.5221	0.939
x2 = 0.6211	0.727
x2 = 0.7108	0.607
x2 = 0.7927	0.519
x2 = 0.8676	0.466
x2 = 0.9365	0.416

CCCCCCCCN(CCCCCCCC)CCCCCCCC + CCCCCC
Conditions	viscosity [mPa·s]
298 K, 101.3 kPa, x1 = 0.00584	0.331

CCCCOCCO + CCCCCC
viscosity [mPa·s], 101 kPa
Conditions	303.15 K	313.15 K
x1 = 0.0327	0.292	0.258
x1 = 0.1014	0.354	0.31
x1 = 0.1974	0.456	0.396
x1 = 0.2974	0.587	0.506
x1 = 0.395	0.741	0.634
x1 = 0.4968	0.93	0.787
x1 = 0.5957	1.148	0.956
x1 = 0.7323	1.507	1.23
x1 = 0.8316	1.793	1.458
x1 = 0.8992	2.025	1.634
x1 = 0.9658	2.271	1.79

CCOC(=O)CCl + CCCCCC
viscosity [mPa·s], 101.33 kPa
Conditions	x1 = 0.0977	x1 = 0.2029	x1 = 0.3028	x1 = 0.4001	x1 = 0.4982	x1 = 0.6039	x1 = 0.7027	x1 = 0.8032	x1 = 0.9022
298.15 K	0.342	0.375	0.416	0.465	0.524	0.602	0.683	0.787	0.923
303.15 K	0.326	0.357	0.396	0.441	0.495	0.566	0.641	0.739	0.861
308.15 K	0.309	0.339	0.377	0.417	0.466	0.53	0.6	0.69	0.8

COC(=O)c1ccccc1 + CCCCCC
101 kPa
Conditions	viscosity [mPa·s]
298.15 K, x2 = 0.0743	1.549
298.15 K, x2 = 0.1072	1.437
298.15 K, x2 = 0.1557	1.292
298.15 K, x2 = 0.2038	1.165
298.15 K, x2 = 0.2487	1.059
298.15 K, x2 = 0.306	0.942
298.15 K, x2 = 0.4327	0.739
298.15 K, x2 = 0.5799	0.573
298.15 K, x2 = 0.6269	0.531
298.15 K, x2 = 0.7731	0.43
298.15 K, x2 = 0.8687	0.379
298.15 K, x2 = 0.9288	0.356
308.15 K, x2 = 0.0711	1.287
308.15 K, x2 = 0.1099	1.188
308.15 K, x2 = 0.156	1.08
308.15 K, x2 = 0.1971	0.989
308.15 K, x2 = 0.2501	0.894
308.15 K, x2 = 0.2967	0.816
308.15 K, x2 = 0.3441	0.748
308.15 K, x2 = 0.3888	0.69
308.15 K, x2 = 0.4383	0.633
308.15 K, x2 = 0.4943	0.577
308.15 K, x2 = 0.5292	0.546
308.15 K, x2 = 0.5797	0.504
308.15 K, x2 = 0.6228	0.475
308.15 K, x2 = 0.6692	0.446
308.15 K, x2 = 0.7253	0.412
308.15 K, x2 = 0.767	0.392
308.15 K, x2 = 0.8162	0.37
308.15 K, x2 = 0.8731	0.347
308.15 K, x2 = 0.9205	0.329
318.15 K, x2 = 0.08	1.087
318.15 K, x2 = 0.0873	1.072
318.15 K, x2 = 0.1249	1
318.15 K, x2 = 0.1776	0.906
318.15 K, x2 = 0.2189	0.839
318.15 K, x2 = 0.2731	0.757
318.15 K, x2 = 0.3197	0.696
318.15 K, x2 = 0.3711	0.634
318.15 K, x2 = 0.4155	0.586
318.15 K, x2 = 0.4667	0.537
318.15 K, x2 = 0.5132	0.499
318.15 K, x2 = 0.5535	0.471
318.15 K, x2 = 0.6116	0.436
318.15 K, x2 = 0.6634	0.41
318.15 K, x2 = 0.7082	0.388
318.15 K, x2 = 0.7636	0.365
318.15 K, x2 = 0.8087	0.35
318.15 K, x2 = 0.8631	0.333
318.15 K, x2 = 0.9098	0.317

COC(=O)c1ccccc1 + CCCCCCC
viscosity [mPa·s], 101.3 kPa
Conditions	x1 = 0.0999	x1 = 0.196	x1 = 0.3001	x1 = 0.3974	x1 = 0.5004	x1 = 0.5978	x1 = 0.6984	x1 = 0.8033	x1 = 0.9017
298.15 K	0.425	0.464	0.533	0.601	0.701	0.814	0.968	1.183	1.435
308.15 K	0.382	0.418	0.472	0.535	0.616	0.708	0.839	1.008	1.197
318.15 K	0.346	0.378	0.422	0.475	0.539	0.62	0.72	0.86	1.024

— the CheMixHub viscosity set
